Measured values: patent US20050239718A1, “Use of hederagenin 3-O-alpha-L-rhamnopyranosyl((1-2)-[betha-D-glucopyranosyl(1-4)]-alpha-L-arabinopyranoside or an extract from pulsatillae radix containing the same as a therapeutic agent for solid tumors” (priority 2002, published 2005)

Columns and labels:
LLC cells = assay: Antitumor activity on BDF1 mice transplanted with LLC cells; format: in vivo, mouse; details: for Inhibition rate of tumor growth (%): i.p., WT 280, SPX1 70, SPX2 171, SPX3 30.5, SPX4 8.1, SB365 6.4, adriamycin 0.5 mg/kg
Method: The mouse species used in this experiment was BDF1, and healthy male mice with the body weight of […] were used. These animals were supplied with water and foods ad libitum at a place of controlled temperature in the range of 2324° C., and were bred with an antibiotic-free mouse feed. LLC cells were subcutaneously cultured in C57BL/6 mice for 14 days. A LLC cell-containing tissue was taken and thereto was added sterilized cold physiological saline water (5 ml/g tissue) to prepare a cell suspension. The cell suspension of 0.2 ml was subcutaneously transplanted to the groin region of BDF1 mouse.
From 24 hours after transplantation, the above mice were divided into several groupsconsisting of 5 mice. Then, samples, fractions WT and SPX fractions, and SB365, were dissolved in physiological saline, and were injected intraperitoneally at each concentration of 280 mg/kg (WT), 70 mg/kg SPX1), 171 mg/kg (SPX2), 30.5 mg/kg (SPX3), 8.1 mg/kg (SPX4), and 6.4 mg/kg (SB365). To the negative control group was injected only the physiological saline, and to the positive control group was injected adriamycin (0.5 mg/kg). The injection was scheduled from 24 hours after tumor transplantation to administer the samples successively once a day for 7 days, and stopped for one day, and then, was carried out for 6 more consecutive days.
In order to evaluate toxicity of SB365 on mice, experimental mice were weighed twice a week. Antitumor activity was calculated after measuring tumor volume of the control and test groups on 14th and 15th day after sample administration as follows: • Tumor volume (mm^3)=length (mm)×width^2 (mm^2)/2 • Inhibition rate of tumor growth (%)=(C−T)×100/C • (C: average tumor volume in the control group, T: average tumor volume in the test group)

NCI-H23 cells = assay: Antitumor activity on nude mice transplanted with NCI-H23 cells; format: in vivo, mouse; details: for Inhibition rate of tumor growth (%) on NCI-H23: 16th day after tumor cells transplantation
Method: Female nude mice of the age of 5 weeks weighing 16˜25 g obtained from Harlan Co. (USA) were used as experimental animals in this experiment. The mice were used after acclimation for 1 week in an aseptic animal room. The animal room maintained the temperature of 22±2° C., the humidity of 55±5%, and the light and darkness cycle of 12 hours, which was automatically controlled. Solid feed for experimental animals was radiosterilized, and drinking water was sterilized in an autoclave. The animals were supplied with feed and drinking water ad libitum. A human tumor cell line provided by National Cancer Institute (NCI), USA, and preserved in the Korean Research Institute of Bioscience and Biotechnology (KRIBB), Korea, was used. Lung tumor cells, NCI-H23 cells, among the human tumor cells, were transplanted to the nude mice. The tumor cells of 3×10^7 cells/ml were subcutaneously transplanted to the mice at a volume of 0.3 ml/20 g body weight. The samples were intraperitoneally injected to the mice every day for 13 days, that is, from 1 day to 14th day except 8th day after tumor cells transplantation. The size of tumor formed during the injection was measured in each animal, and any change in its body weight was also measured. On 16th day after tumor cells transplantation, the nude mice were sacrificed, and the tumor was separated and weighed. To the positive control group was intraperitoneally injected adiamycin of 0.5 mg/kg body weight on 1st, 5th, 9th, and 14th day.

KB cells = details: by inhibition of DNA polymerase; cited from earlier work
[1] = 14th day after transplantation of tumor cells
[2] = 15th day after transplantation of tumor cells

| SMILES | Inhibition rate of tumor growth (%) (LLC cells; [1]) | Inhibition rate of tumor growth (%) (LLC cells; [2]) | Inhibition rate of tumor growth (%) on NCI-H23 (NCI-H23 cells; 0.5 mg/kg i.p. on 1st, 5th, 9th, 14th day) | Antitumor activity (in words) (LLC cells; BDF1 mice transplanted with LLC cells) | Inhibition rate of tumor growth (LLC cells; day not stated) | Inhibition rate of tumor growth (%) on NCI-H23 (NCI-H23 cells; 1.6 mg/kg i.p.) | Inhibition rate of tumor growth (%) on NCI-H23 (NCI-H23 cells; 3.2 mg/kg i.p.) | Inhibition rate of tumor growth (%) on NCI-H23 (NCI-H23 cells; 6.4 mg/kg i.p.) | Antitumor activity (in words) (NCI-H23 cells; nude mice transplanted with NCI-H23 cells) | Cytotoxicity (in words) (KB cells) |
| --- | --- | --- | --- | --- | --- | --- | --- | --- | --- | --- |
| COc1cccc2c1C(=O)c1c(O)c3c(c(O)c1C2=O)C[C@@](O)(C(=O)CO)C[C@@H]3O[C@H]1C[C@H](N)[C@H](O)[C@H](C)O1 [Adriamycin, reference compound] | 60% | 64% | 61.5% | – | – | – | – | – | – | – |
| CC1OC(OC2C(O[C@H]3CC[C@@]4(C)C(CC[C@]5(C)C4CC=C4C6CC(C)(C)CC[C@]6(C(=O)O)CC[C@]45C)[C@]3(C)CO)OCC(OC3OC(CO)C(O)C(O)C3O)C2O)C(O)C(O)C1O (stereo partly drawn) [SB365, hederagenin 3-O-α-L-rhamnopyranosyl(1→2)-[β-D-glucopyranosyl(1→4)]-α-L-arabinopyranoside] | 82% | 79% | – | higher antitumor activity | 81% | 40.1% | 52.3% | 82.1% | higher antitumor activity | – |
| O=C1C=C[C@@H](COC2OC(CO)C(O)C(O)C2O)O1 (stereo partly drawn) [ranunculin, Ranunculin] | – | – | – | – | – | – | – | – | – | has cytotoxicity |
